The values that follow come from patent US11208386B2, “Inhibitors of protein arginine deiminases (PADs) and methods of preparation and use thereof” (University of Massachusetts, priority 2016, dated 2021).

Holding throughout (type): biochemical
For one experiment, the target named is T1, PAD1 (Homo sapiens, UniProt Q9ULC6).
T1 construct: made in house
T1 sequence (Q9ULC6 1-663): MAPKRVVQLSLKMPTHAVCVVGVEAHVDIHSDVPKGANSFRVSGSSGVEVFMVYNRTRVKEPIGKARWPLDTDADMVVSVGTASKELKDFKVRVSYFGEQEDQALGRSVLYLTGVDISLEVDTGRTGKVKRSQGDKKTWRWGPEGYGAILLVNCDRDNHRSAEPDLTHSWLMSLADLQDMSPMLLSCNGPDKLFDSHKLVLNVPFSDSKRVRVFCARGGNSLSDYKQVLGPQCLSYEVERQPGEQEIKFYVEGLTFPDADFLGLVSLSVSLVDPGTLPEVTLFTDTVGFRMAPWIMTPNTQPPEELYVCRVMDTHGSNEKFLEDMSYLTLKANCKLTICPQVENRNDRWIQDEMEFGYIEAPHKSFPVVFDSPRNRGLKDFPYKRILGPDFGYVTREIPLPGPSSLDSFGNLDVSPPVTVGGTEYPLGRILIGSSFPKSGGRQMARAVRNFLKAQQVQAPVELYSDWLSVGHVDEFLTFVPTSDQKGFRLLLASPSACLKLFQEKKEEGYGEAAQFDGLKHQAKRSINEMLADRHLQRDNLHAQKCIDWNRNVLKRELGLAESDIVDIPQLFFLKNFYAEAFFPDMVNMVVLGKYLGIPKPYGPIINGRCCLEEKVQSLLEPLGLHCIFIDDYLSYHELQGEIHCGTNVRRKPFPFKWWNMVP
As to the kind of experiment: Inactivation kinetics, PAD1. The following applies: for kinact/KI: a: single kobs determined, b: from a linear fit; for Fold PAD1 Selectivity: kinact/KI relative to least inhibited isozyme (1.0). On the procedure:
(§1) Inactivation kinetic parameters were determined by incubating PAD1, 2, or 4 (2.0 μM) or PAD3 (5.0 μM) in a pre-warmed (10 min; 37° C.) inactivation mixture (50 mM HEPES, 10 mM CaCl2, and 2 mM DTT, pH 7.6, with a final volume of 60 μL) containing various concentrations of inhibitor. Aliquots were removed at various time points and added to a pre-warmed (10 min, 37° C.) reaction mixture (50 mM HEPES, 50 mM NaCl, 10 mM CaC2, 2 mM DTT, and 10 mM BAEE or 10 mM BAA in the case of PAD3; pH 7.6). After 15 min, reactions were quenched in liquid nitrogen and citrulline production quantified using the COLDER assay. […] In Vitro Labeling of PADs with “Clickable” Probes BB-F-Yne (5u), BB-Cl-Yne (5v) and BIFYne (5w)

A further experiment concerns the target T2, PAD2 (Homo sapiens, UniProt Q9Y2J8).
T2 construct: made in house
As to the kind of experiment: Inactivation kinetics, PAD2. The following applies: for kinact/KI: a: single kobs determined, b: from a linear fit, other footnotes: from kinact and KI; for Fold PAD2 Selectivity: kinact/KI relative to least inhibited isozyme (1.0). On the procedure: as §1

A further experiment concerns the target T3, PAD3 (Homo sapiens, UniProt Q9ULW8).
T3 construct: made in house
T3 sequence (Q9ULW8 1-664): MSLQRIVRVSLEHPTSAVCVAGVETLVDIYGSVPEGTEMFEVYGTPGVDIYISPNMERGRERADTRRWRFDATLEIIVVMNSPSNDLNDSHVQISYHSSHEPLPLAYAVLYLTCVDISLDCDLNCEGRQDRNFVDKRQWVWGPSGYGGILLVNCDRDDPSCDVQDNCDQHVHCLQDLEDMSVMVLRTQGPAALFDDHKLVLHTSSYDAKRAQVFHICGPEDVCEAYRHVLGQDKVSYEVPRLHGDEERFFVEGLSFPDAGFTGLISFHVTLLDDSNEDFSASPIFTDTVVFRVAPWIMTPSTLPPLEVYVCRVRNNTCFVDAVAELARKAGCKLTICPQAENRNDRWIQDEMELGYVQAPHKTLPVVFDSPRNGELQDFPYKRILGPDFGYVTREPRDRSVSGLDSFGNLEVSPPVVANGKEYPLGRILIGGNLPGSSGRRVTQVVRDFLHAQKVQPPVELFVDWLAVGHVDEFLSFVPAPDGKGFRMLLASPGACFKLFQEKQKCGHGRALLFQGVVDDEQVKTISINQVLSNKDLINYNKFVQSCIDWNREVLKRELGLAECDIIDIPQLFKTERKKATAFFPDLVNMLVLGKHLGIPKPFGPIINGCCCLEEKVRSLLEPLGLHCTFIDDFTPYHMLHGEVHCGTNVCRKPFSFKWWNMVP
Put plainly: Inactivation kinetics, PAD3. The following applies: for kinact/KI: a: single kobs determined; for Fold PAD3 Selectivity: kinact/KI relative to least inhibited isozyme (1.0). As to the method:
as §1

The target in another experiment is T4, PAD4 (Homo sapiens, UniProt Q9UM07).
T4 construct: made in house
T4 sequence (Q9UM07 whole entry): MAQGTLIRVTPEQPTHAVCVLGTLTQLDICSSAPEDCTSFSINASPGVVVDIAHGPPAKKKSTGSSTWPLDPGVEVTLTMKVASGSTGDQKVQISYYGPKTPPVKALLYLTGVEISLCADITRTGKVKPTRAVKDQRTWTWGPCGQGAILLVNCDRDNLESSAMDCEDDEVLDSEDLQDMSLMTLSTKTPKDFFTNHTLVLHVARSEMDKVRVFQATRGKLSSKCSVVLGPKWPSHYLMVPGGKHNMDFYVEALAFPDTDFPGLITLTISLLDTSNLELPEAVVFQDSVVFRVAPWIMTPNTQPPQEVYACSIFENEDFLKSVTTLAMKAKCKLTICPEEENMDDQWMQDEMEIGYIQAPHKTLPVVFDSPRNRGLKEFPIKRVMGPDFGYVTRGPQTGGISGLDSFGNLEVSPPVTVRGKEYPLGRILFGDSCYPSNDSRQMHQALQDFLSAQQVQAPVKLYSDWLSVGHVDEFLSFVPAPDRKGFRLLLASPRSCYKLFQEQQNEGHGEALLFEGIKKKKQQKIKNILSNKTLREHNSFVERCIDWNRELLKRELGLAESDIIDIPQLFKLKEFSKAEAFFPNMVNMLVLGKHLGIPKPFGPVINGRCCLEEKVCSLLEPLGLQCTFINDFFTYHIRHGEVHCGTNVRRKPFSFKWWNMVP
Put plainly: Inactivation kinetics, PAD4. The following applies: for kinact/KI: a: single kobs determined, b: from a linear fit; for Fold PAD4 Selectivity: kinact/KI relative to least inhibited isozyme (1.0). As to the method: as §1

Structures are written as SMILES.

T2 sequence (Q9Y2J8 whole entry): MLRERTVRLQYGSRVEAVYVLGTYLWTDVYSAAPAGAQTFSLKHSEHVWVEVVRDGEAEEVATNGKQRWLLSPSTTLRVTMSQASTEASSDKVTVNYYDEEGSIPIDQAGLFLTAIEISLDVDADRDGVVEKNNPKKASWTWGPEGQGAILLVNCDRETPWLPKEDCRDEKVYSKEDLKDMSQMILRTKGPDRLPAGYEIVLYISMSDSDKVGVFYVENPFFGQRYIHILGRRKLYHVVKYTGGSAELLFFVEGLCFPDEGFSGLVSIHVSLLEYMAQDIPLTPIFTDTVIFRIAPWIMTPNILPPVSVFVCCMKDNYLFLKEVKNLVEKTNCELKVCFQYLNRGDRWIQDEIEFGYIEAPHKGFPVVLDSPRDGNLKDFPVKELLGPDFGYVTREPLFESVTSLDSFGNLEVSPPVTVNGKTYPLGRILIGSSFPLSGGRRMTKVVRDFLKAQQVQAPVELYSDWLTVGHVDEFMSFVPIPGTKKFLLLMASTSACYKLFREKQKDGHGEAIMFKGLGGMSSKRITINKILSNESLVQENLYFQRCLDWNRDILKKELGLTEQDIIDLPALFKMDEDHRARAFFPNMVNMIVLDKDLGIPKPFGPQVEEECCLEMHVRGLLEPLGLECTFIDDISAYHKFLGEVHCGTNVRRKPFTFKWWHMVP

By kinact/KI is commonly meant the second-order rate constant of inactivation. As for `CC(C)n1c([C@H](CCCNC(=N)CCl)NC(=O)c2ccc(-c3ccccc3)cc2)nc2ccccc21` [Compound 5l, N1-[1,4′-Phenyl]benzoyl-N5-(2-chloro-1-iminoethyl)-1-(1-isopropyl-benzo[d]imidazol-2-yl)-L-ornithine], on PAD1, the kinact/KI is 20.3 M⁻¹ s⁻¹ and the “Fold PAD1 Selectivity” value was determined as 1.3 fold. Besides, on PAD2, the kinact/KI was 24.8 M⁻¹ s⁻¹ and the “Fold PAD2 Selectivity” value is reported as 1.6 fold. In addition, on PAD3, the second-order inactivation constant (kinact/KI) was 192 M⁻¹ s⁻¹ and the “Fold PAD3 Selectivity” value is 12 fold. Also, at PAD4, the kinact/KI is 15.8 M⁻¹ s⁻¹ and the “Fold PAD4 Selectivity” value is on record as 1.0 fold.
Take `COc1cccc2c1nc([C@H](CCCNC(=N)CF)NC(=O)c1ccc(-c3ccccc3)cc1)n2C` [Compound 5m, N1-[1,4′-Phenyl]benzoyl-N5-(2-fluoro-1-iminoethyl)-1-(4-methoxy-1-methyl-benzo[d]imidazol-2-yl)-L-omithine]: at PAD1, the kinact/KI was 31.2 M⁻¹ s⁻¹ and the “Fold PAD1 Selectivity” value stood at 2.4 fold. For the same compound, on PAD2, the kinact/KI is 132 M⁻¹ s⁻¹ and the “Fold PAD2 Selectivity” value is 10 fold. For the same compound, on PAD3, the kinact/KI was 48.3 M⁻¹ s⁻¹ and the “Fold PAD3 Selectivity” value was 3.7 fold. On PAD4, the kinact/KI was 13.2 M⁻¹ s⁻¹ and the “Fold PAD4 Selectivity” value is 1.0 fold.
`COc1cccc2c1nc([C@H](CCCNC(=N)CCl)NC(=O)c1ccc(-c3ccccc3)cc1)n2C` [Compound 5n, N1-[1,4′-Phenyl]benzoyl-N5-(2-chloro-1-iminoethyl)-1-(4-methoxy-1-methyl-benzo[d]imidazol-2-yl)-L-ornithine]: at PAD1, the inactivation efficiency (kinact/KI) is 580 M⁻¹ s⁻¹ and the “Fold PAD1 Selectivity” value is on record as 6.3 fold. At PAD2, the kinact/KI is 463 M⁻¹ s⁻¹ and the “Fold PAD2 Selectivity” value is reported as 5.1 fold. Further, at PAD3, the kinact/KI is 91.7 M⁻¹ s⁻¹ and the “Fold PAD3 Selectivity” value came to 1.0 fold. On PAD4, the kinact/KI was 132 M⁻¹ s⁻¹ and the “Fold PAD4 Selectivity” value amounted to 1.4 fold.
As for `N=C(CF)NCCC[C@H](NC(=O)c1ccc(-c2ccc(F)cc2)cc1)c1nc2ccccc2[nH]1` [Compound 5o], on PAD1, the kinact/KI was 23.3 M⁻¹ s⁻¹ and the “Fold PAD1 Selectivity” value was 1.0 fold. Further, at PAD2, the kinact/KI was 28.3 M⁻¹ s⁻¹ and the “Fold PAD2 Selectivity” value was 1.2 fold. In addition, at PAD3, the kinact/KI was 27 M⁻¹ s⁻¹ and the “Fold PAD3 Selectivity” value amounted to 1.2 fold. Further, at PAD4, the kinact/KI was 53.3 M⁻¹ s⁻¹ and the “Fold PAD4 Selectivity” value came out at 2.3 fold.
On to `N=C(CCl)NCCC[C@H](NC(=O)c1ccc(-c2ccc(F)cc2)cc1)c1nc2ccccc2[nH]1` [Compound 5p, N1-4′-F-[1,1′-Phenyl]benzol-N5-(2-chloro-1-iminoethyl)-1-(1H-benzo[d]imidazol-2-yl)-L-ornithine], for which, on PAD1, the inactivation efficiency (kinact/KI) was 343 M⁻¹ s⁻¹ and the “Fold PAD1 Selectivity” value came to 3.7 fold. At PAD2, the kinact/KI is 91.7 M⁻¹ s⁻¹ and the “Fold PAD2 Selectivity” value worked out at 1.0 fold. In addition, on PAD3, the kinact/KI was 176 M⁻¹ s⁻¹ and the “Fold PAD3 Selectivity” value is on record as 1.9 fold. For the same compound, at PAD4, the kinact/KI was 280 M⁻¹ s⁻¹ and the “Fold PAD4 Selectivity” value worked out at 3.1 fold.
For the compound `N=C(CF)NCCC[C@H](NC(=O)c1ccc(-c2ccccc2)cc1)c1nc2cc(F)c(F)cc2[nH]1` [Compound 5q, N1-[1,1′-Phenyl]benzoyl-N5-(2-fluoro-1-iminoethyl)-1-(5,6-difluoro-1H-benzo[d]imidazol-2-yl)-L-ornithine], on PAD1, the kinact/KI was 31 M⁻¹ s⁻¹ and the “Fold PAD1 Selectivity” value turned out to be 1.2 fold. At PAD2, the inactivation efficiency (kinact/KI) was 26.2 M⁻¹ s⁻¹ and the “Fold PAD2 Selectivity” value is reported as 1.0 fold. In addition, at PAD3, the kinact/KI is 25.5 M⁻¹ s⁻¹ and the “Fold PAD3 Selectivity” value was 1.0 fold. Besides, on PAD4, the kinact/KI was 60 M⁻¹ s⁻¹ and the “Fold PAD4 Selectivity” value is recorded as 2.4 fold.
On to `N=C(CCl)NCCC[C@H](NC(=O)c1ccc(-c2ccccc2)cc1)c1nc2cc(F)c(F)cc2[nH]1` [Compound 5r, N1-[1,1′-Phenyl]benzoyl-N5-(2-chloro-1-iminoethyl)-1-(5,6-difluoro-1H-benzo[d]imidazol-2-yl)-L-ornithine], for which, on PAD1, the second-order inactivation constant (kinact/KI) is 457 M⁻¹ s⁻¹ and the “Fold PAD1 Selectivity” value is 4.9 fold. At PAD2, the kinact/KI is 93.3 M⁻¹ s⁻¹ and the “Fold PAD2 Selectivity” value stood at 1.0 fold. Moreover, on PAD3, the kinact/KI is 239 M⁻¹ s⁻¹ and the “Fold PAD3 Selectivity” value turned out to be 2.6 fold. For the same compound, at PAD4, the kinact/KI was 337 M⁻¹ s⁻¹ and the “Fold PAD4 Selectivity” value is 3.6 fold.
Turning to `N=C(CF)NCCC[C@H](NC(=O)c1ccc(-c2ccc(F)cc2)cc1)c1nc2cc(F)c(F)cc2[nH]1` [Compound 5s, N1-4′-F-[1,1′-Phenyl]benzoyl-N5-(2-fluoro-1-iminoethyl)-1-(5,6-difluoro-1H-benzo[d]imidazol-2-yl)-L-omithine], on PAD1, the kinact/KI was 29.8 M⁻¹ s⁻¹ and the “Fold PAD1 Selectivity” value worked out at 1.6 fold. Also, at PAD2, the kinact/KI was 23.7 M⁻¹ s⁻¹ and the “Fold PAD2 Selectivity” value came out at 1.3 fold. In addition, on PAD3, the kinact/KI was 18.3 M⁻¹ s⁻¹ and the “Fold PAD3 Selectivity” value came to 1.0 fold. Also, on PAD4, the kinact/KI was 67.3 M⁻¹ s⁻¹ and the “Fold PAD4 Selectivity” value was determined as 3.7 fold.
Consider `N=C(CCl)NCCC[C@H](NC(=O)c1ccc(-c2ccc(F)cc2)cc1)c1nc2cc(F)c(F)cc2[nH]1` [Compound 5t, N1-4′-F-[1,1′-Phenyl]benzoyl-N5-(2-chloro-1-iminoethyl)-1-(5,6-difluoro-1H-benzo[d]imidazol-2-yl)-L-omithine], for which, on PAD1, the kinact/KI was 508 M⁻¹ s⁻¹ and the “Fold PAD1 Selectivity” value is given as 5.3 fold. At PAD2, the kinact/KI is 95.5 M⁻¹ s⁻¹ and the “Fold PAD2 Selectivity” value is given as 1.0 fold. Further, on PAD3, the kinact/KI was 120 M⁻¹ s⁻¹ and the “Fold PAD3 Selectivity” value is given as 1.3 fold. On PAD4, the kinact/KI is 354 M⁻¹ s⁻¹ and the “Fold PAD4 Selectivity” value is on record as 3.7 fold.
On to `C#Cc1ccc(-c2ccc(C(=O)N[C@@H](CCCNC(=N)CCl)c3nc4ccccc4[nH]3)cc2)cc1` [Compound 5v, N1-4′-ethynyl-[1,1′-Phenyl]benzol-N5-(2-chloro-1-iminoethyl)-1-(1H-benzo[d]imidazol-2-yl)-L-ornithine], for which, at PAD1, the kinact/KI was 6.92 M⁻¹ s⁻¹ and the “Fold PAD1 Selectivity” value was 1.1 fold. At PAD2, the second-order inactivation constant (kinact/KI) was 14.6 M⁻¹ s⁻¹ and the “Fold PAD2 Selectivity” value is listed as 2.3 fold. In addition, at PAD3, the kinact/KI was 6.25 M⁻¹ s⁻¹ and the “Fold PAD3 Selectivity” value came to 1.0 fold. Also, at PAD4, the kinact/KI was 21.7 M⁻¹ s⁻¹ and the “Fold PAD4 Selectivity” value worked out at 3.5 fold.
Regarding `N=C(CF)NCCC[C@H](NC(=O)c1ccccc1C(=O)O)c1nc2ccccc2[nH]1` [Compound 6a, N1-(2-Carboxyl)benzol-N5-(2-fluoro-1-iminoethyl)-1-(1H-benzo[d]imidazol-2-yl)-L-ornithine], on PAD1, the kinact/KI was 275 M⁻¹ s⁻¹ and the “Fold PAD1 Selectivity” value was 11 fold. On PAD2, the kinact/KI is 25 M⁻¹ s⁻¹ and the “Fold PAD2 Selectivity” value was 1.0 fold. Also, on PAD3, the kinact/KI was 108 M⁻¹ s⁻¹ and the “Fold PAD3 Selectivity” value worked out at 4.3 fold. On PAD4, the kinact/KI is 405 M⁻¹ s⁻¹ and the “Fold PAD4 Selectivity” value is reported as 16 fold.
